Assay results: ChEMBL document CHEMBL1141723, “Specific targeting of metzincin family members with small-molecule inhibitors: progress toward a multifarious challenge” (Bioorg Med Chem, 2008)
The source made the active and inactive calls. No cut-off for these calls is given here.

How the values were obtained:
Collagenase 3 [1] = target: T1, Collagenase 3 (Homo sapiens, UniProt P45452); test: Inhibition of MMP13 at 10 ug/mL
[2] = target: T2, Matrix metalloproteinase-14 (Homo sapiens, UniProt P50281); test: Inhibition of MMP14
[3] = target: T3, Matrilysin (Homo sapiens) (UniProt P09237); test: Inhibition of MMP7 up to 60 uM
T3 sequence (whole entry): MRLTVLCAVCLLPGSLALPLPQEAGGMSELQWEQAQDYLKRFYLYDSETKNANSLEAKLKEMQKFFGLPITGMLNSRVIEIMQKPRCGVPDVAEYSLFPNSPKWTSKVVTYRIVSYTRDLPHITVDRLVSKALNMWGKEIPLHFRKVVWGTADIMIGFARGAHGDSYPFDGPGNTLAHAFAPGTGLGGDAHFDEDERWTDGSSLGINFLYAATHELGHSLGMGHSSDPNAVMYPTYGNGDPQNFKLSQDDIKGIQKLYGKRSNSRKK

[4] = target: T4, Interstitial collagenase (Homo sapiens) (UniProt P03956); test: Inhibition of MMP1 up to 60 uM
T4 sequence (whole entry): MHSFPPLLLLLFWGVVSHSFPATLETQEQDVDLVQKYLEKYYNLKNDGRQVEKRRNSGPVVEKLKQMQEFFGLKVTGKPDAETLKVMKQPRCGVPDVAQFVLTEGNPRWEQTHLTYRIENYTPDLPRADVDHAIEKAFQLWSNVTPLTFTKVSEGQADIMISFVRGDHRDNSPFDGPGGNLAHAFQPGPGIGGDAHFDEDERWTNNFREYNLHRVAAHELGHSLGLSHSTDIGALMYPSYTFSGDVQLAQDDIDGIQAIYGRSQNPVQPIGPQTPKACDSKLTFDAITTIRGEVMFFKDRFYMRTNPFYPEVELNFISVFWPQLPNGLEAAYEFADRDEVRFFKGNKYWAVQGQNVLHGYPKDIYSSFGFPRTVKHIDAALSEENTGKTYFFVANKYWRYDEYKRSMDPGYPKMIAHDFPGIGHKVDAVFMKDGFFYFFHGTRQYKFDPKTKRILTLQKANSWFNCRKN

[5] = target: T5, 72 kDa type IV collagenase (Homo sapiens, UniProt P08253)
Target sequence in this assay (P08253 whole entry): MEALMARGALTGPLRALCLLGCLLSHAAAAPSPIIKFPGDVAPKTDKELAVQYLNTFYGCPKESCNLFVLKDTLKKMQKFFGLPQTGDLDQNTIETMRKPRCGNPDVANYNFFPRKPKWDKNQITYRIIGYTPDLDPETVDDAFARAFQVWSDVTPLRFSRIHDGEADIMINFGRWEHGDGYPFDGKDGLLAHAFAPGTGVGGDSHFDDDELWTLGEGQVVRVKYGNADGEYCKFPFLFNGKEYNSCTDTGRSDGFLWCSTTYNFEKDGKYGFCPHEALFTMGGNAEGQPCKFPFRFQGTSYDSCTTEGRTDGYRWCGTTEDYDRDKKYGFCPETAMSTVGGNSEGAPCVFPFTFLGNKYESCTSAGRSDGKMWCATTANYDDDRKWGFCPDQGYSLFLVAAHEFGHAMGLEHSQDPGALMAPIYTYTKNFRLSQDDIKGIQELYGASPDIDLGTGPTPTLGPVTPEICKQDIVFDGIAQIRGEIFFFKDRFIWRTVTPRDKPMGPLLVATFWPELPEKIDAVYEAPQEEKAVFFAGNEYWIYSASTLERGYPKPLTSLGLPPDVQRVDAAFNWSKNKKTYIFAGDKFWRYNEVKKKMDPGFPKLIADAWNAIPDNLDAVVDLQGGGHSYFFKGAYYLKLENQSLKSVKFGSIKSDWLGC

Stromelysin-1 [6] = target: T6, Stromelysin-1 (Homo sapiens, UniProt P08254)
Target sequence in this assay (P08254 whole entry): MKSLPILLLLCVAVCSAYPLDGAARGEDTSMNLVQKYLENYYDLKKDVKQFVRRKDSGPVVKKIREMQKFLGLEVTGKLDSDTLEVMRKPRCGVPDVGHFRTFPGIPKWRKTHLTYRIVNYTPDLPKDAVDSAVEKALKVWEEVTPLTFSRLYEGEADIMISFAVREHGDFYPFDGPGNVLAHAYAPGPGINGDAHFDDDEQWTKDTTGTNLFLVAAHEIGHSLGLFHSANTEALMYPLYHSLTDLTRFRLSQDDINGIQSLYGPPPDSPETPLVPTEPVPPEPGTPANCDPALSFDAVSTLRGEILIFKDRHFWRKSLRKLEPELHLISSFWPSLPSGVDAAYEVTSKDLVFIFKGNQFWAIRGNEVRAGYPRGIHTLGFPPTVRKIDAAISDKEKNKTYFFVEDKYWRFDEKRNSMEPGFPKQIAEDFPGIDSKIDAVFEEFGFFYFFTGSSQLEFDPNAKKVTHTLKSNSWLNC

[7] = target: T7, Matrix metalloproteinase-9 (Homo sapiens, UniProt P14780); test: Inhibition of MMP9
[8] = Inhibition of aggrecanase at 1 uM
[9] = target: T7, Matrix metalloproteinase-9; test: Inhibition of MMP9 at 10 uM
[10] = target: T4, Interstitial collagenase (Homo sapiens); test: Inhibition of MMP1 at 10 uM
Collagenase 3 [11] = target: T1, Collagenase 3; test: Inhibition of MMP13 at 10 uM
[12] = target: A disintegrin and metalloproteinase with thrombospondin motifs 5 (Homo sapiens, UniProt Q9UNA0); test: Inhibition of ADAMTS5
Neutrophil collagenase [13] = target: T8, Neutrophil collagenase (Homo sapiens, UniProt P22894); test: Inhibition of MMP8
[14] = target: T9, Matrix metalloproteinase-17 (Homo sapiens) (UniProt Q9ULZ9); test: Inhibition of MMP17
T9 sequence (whole entry): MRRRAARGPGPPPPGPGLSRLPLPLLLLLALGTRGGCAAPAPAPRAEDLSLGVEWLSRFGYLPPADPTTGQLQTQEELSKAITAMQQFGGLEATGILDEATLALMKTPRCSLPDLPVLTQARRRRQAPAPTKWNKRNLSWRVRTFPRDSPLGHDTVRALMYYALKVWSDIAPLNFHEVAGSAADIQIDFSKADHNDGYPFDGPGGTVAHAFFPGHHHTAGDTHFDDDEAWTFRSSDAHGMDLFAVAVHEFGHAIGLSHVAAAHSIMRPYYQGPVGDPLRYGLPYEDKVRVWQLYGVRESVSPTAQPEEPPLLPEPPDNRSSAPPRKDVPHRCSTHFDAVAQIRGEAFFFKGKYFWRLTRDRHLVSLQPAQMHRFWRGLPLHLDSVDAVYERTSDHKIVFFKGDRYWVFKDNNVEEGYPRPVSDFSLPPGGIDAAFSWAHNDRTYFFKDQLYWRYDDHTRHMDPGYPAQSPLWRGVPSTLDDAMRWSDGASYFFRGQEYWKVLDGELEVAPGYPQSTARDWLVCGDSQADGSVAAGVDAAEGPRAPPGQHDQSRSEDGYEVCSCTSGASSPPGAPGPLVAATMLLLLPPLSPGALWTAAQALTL

[15] = target: T10, Macrophage metalloelastase (Homo sapiens, UniProt P39900); test: Inhibition of MMP12
[16] = target: T4, Interstitial collagenase (Homo sapiens); test: Inhibition of MMP1
[17] = target: T3, Matrilysin (Homo sapiens); test: Inhibition of MMP7
[18] = target: T2, Matrix metalloproteinase-14; test: Inhibition of MMP14 up to 100 uM
[19] = target: T10, Macrophage metalloelastase; test: Inhibition of MMP12 up to 100 uM
[20] = target: T3, Matrilysin (Homo sapiens); test: Inhibition of MMP7 up to 100 uM
[21] = target: T5, 72 kDa type IV collagenase; test: Inhibition of MMP2 up to 100 uM
Target sequence in this assay (P08253 110-660 limits assumed): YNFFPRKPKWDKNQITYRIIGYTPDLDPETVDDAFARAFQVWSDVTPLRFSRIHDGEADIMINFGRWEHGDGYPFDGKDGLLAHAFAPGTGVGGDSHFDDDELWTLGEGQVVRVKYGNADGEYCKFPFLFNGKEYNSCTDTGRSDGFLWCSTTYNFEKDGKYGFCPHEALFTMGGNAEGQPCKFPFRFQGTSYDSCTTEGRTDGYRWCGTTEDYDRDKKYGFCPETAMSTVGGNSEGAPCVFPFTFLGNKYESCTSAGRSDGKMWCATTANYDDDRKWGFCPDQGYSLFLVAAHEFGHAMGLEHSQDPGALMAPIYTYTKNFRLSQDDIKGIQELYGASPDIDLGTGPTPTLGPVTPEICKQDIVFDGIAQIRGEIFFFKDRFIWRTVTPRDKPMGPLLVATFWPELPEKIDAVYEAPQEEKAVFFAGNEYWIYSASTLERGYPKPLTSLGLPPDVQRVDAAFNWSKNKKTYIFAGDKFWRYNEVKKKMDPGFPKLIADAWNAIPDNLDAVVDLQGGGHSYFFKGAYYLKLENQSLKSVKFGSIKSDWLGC

[22] = target: T7, Matrix metalloproteinase-9; test: Inhibition of MMP9 up to 100 uM
Stromelysin-1 [23] = target: T6, Stromelysin-1; test: Inhibition of MMP3 up to 100 uM
Target sequence in this assay (P08254 100-477 limits assumed): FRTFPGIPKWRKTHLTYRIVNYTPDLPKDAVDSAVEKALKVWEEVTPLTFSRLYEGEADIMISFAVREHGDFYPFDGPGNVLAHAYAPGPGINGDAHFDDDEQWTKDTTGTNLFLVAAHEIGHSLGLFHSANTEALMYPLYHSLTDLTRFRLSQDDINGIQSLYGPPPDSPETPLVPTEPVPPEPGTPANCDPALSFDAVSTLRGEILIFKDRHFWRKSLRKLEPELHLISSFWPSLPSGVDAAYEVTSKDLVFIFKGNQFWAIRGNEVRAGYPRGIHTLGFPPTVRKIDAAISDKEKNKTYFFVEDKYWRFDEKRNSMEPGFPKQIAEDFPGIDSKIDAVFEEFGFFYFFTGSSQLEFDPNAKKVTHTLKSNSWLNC

Neutrophil collagenase [24] = target: T8, Neutrophil collagenase; test: Inhibition of MMP8 up to 100 uM
Target sequence in this assay (P22894 101-467 limits assumed): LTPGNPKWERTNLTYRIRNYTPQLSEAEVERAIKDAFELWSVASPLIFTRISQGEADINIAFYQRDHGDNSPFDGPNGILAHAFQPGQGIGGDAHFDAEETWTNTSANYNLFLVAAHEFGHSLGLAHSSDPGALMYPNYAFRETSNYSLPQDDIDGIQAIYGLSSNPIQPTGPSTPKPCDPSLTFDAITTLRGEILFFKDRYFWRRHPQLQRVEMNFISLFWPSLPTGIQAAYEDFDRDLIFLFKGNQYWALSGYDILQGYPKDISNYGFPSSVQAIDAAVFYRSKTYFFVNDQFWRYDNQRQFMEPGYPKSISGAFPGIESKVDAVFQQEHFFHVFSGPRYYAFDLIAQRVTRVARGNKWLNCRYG

[25] = target: T4, Interstitial collagenase (Homo sapiens); test: Inhibition of MMP1 at 100 uM
[26] = target: T9, Matrix metalloproteinase-17 (Homo sapiens); test: Inhibition of MMP17 up to 100 uM
Collagenase 3 [27] = target: T1, Collagenase 3; test: Inhibition of MMP13
Stromelysin-3 = Stromelysin-3 (Homo sapiens, UniProt P24347); test: Inhibition of MMP11
[28] = target: Matrix metalloproteinase-16 (Homo sapiens, UniProt P51512); test: Inhibition of MMP16 up to 100 uM
Stromelysin-2 = Stromelysin-2 (Homo sapiens, UniProt P09238); test: Inhibition of MMP10 up to 100 uM
[29] = Selectivity for MMP13 over MMP12
[30] = Selectivity for MMP13 over MMP8
[31] = Selectivity for MMP13 over MMP9
[32] = Selectivity for MMP13 over MMP3
[33] = Selectivity for MMP13 over MMP1
[34] = Selectivity for MMP13 over MMP14
[35] = Selectivity for MMP13 over MMP2
[36] = Inhibition of bovine aggrecanase; design: species or system Bos taurus
[37] = Selectivity for bovine aggrecanase over MMP1
[38] = Selectivity for bovine aggrecanase over MMP2

T7 sequence (P14780 whole entry): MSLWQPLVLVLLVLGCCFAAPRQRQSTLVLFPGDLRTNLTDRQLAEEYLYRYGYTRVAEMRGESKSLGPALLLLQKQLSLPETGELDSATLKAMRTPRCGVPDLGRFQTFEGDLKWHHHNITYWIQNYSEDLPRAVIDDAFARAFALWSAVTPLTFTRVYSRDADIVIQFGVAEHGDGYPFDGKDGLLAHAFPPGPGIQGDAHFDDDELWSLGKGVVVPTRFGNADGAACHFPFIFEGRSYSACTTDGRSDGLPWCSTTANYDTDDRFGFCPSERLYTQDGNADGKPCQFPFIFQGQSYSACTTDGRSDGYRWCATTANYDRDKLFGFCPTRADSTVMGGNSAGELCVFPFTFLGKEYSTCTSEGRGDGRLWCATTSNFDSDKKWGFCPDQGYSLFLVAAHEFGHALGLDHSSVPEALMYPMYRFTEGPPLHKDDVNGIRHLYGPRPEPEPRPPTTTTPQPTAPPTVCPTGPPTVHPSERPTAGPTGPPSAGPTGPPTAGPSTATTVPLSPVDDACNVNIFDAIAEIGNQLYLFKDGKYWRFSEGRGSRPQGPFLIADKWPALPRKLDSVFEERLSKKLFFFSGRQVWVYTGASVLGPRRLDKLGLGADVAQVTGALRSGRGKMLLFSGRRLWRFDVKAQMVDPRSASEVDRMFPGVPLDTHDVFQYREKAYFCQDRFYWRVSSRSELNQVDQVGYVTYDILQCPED
T10 sequence (P39900 106-470 limits assumed): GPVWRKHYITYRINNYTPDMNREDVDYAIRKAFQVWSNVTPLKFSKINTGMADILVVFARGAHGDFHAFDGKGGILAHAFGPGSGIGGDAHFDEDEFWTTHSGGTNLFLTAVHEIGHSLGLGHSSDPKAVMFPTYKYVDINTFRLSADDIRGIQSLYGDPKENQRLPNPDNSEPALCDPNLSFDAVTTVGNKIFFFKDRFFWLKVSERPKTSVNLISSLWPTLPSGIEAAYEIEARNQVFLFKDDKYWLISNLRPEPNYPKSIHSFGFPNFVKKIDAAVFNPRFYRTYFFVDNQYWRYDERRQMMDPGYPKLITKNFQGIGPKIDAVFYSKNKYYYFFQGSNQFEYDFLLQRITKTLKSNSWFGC
Sequence of Stromelysin-3 (P24347 whole entry): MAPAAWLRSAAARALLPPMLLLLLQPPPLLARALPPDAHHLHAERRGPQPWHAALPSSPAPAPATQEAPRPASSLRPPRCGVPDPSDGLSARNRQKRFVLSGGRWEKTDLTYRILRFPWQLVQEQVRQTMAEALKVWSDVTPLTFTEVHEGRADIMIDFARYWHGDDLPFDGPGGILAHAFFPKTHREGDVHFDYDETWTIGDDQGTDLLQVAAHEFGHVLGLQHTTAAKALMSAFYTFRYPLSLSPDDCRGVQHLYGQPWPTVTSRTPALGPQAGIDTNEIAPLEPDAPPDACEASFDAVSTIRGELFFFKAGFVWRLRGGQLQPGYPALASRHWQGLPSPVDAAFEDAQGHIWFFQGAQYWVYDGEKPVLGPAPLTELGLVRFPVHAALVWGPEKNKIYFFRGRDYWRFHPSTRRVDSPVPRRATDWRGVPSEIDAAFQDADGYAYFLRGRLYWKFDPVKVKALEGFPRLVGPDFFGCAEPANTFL
Sequence of Matrix metalloproteinase-16 (P51512 whole entry): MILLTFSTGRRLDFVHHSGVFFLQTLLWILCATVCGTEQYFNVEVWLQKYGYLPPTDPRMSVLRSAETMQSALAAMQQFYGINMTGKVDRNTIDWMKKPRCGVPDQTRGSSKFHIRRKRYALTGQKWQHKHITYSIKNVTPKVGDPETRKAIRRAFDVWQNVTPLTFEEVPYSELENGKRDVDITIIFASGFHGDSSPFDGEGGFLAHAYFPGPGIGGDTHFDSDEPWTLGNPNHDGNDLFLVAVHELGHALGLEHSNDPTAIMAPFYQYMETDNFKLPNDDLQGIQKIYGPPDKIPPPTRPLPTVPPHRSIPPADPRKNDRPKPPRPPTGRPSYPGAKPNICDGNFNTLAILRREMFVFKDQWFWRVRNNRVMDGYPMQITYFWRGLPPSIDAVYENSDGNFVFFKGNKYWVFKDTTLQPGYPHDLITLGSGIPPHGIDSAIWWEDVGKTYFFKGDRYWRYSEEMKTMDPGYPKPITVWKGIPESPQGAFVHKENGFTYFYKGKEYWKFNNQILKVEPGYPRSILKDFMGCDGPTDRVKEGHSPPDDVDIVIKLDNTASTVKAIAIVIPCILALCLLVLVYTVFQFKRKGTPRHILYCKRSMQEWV
Sequence of Stromelysin-2 (P09238 99-476 limits assumed): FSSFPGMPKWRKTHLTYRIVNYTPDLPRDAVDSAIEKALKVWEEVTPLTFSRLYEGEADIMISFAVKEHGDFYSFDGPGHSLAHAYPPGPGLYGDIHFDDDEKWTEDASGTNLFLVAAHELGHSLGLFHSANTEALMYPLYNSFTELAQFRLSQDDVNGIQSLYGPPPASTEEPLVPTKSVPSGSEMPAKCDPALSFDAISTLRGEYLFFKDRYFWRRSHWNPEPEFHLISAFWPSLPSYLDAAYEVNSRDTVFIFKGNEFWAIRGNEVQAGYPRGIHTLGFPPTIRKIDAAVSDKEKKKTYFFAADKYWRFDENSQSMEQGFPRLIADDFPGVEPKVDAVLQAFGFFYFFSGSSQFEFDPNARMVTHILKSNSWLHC

Structure (SMILES): O=C(NCCCCN1CCOCC1)c1cc2ccccc2o1
- Activity (Collagenase 3 [1]): inactive

Structure (SMILES): O=S(=O)(CCC(S)CS)c1ccc(Oc2ccccc2)cc1 (centres undefined)
- Ki [2]: 210 nM
- Activity [3]: inactive
- Activity [4]: inactive
- Ki [5]: 46 nM
- Ki (Stromelysin-1 [6]): 10000 nM
- Ki [7]: 100 nM

Structure (SMILES): Cc1cc(COc2ccc(C(=O)NCC3(N4CCN(S(C)(=O)=O)CC4)C(=O)NC(=O)NC3=O)cc2)c2ccccc2n1
- inhibition [8]: 11%

Structure (SMILES): CC#CCOc1ccc(S(=O)(=O)C2(C(=O)NO)CCN(c3ccc(Cl)cc3)CC2)cc1
- inhibition [9]: 52%
- inhibition [10]: 52%
- inhibition (Collagenase 3 [11]): 56%

Structure (SMILES): O=C(N[C@@H]1CCOC[C@@H]1C(=O)NO)c1ccc(Cn2c(C(F)(F)F)nc3ccccc32)cc1
- Ki [12]: 1900 nM

Structure (SMILES): COc1ccc(CNC(=O)c2cc3c(=O)n(Cc4ccc(C(=O)O)cc4)cnc3cn2)cc1
- Activity (Neutrophil collagenase [13]): inactive
- Activity [14]: inactive
- Activity [2]: inactive
- Activity [15]: inactive
- Activity [16]: inactive
- Activity [17]: inactive
- Activity [7]: inactive

Structure (SMILES): Cn1c(=O)n(Cc2ccc(C(=O)O)cc2)c(=O)c2cc(C#CCc3ccccc3)ccc21
- Activity [18]: inactive
- Activity [19]: inactive
- Activity [20]: inactive
- Activity [21]: inactive
- Activity [22]: inactive
- Activity (Stromelysin-1 [23]): inactive
- Activity (Neutrophil collagenase [24]): inactive
- Activity [25]: inactive
- Activity [26]: inactive

Structure (SMILES): COc1ccccc1SC[C@H](CP(=O)(O)[C@H](Cc1ccccc1)NC(=O)OCc1ccccc1)C(=O)N[C@@H](Cc1c[nH]c2ccccc12)C(N)=O
- Ki (Collagenase 3 [27]): 15.7 nM
- Ki (Neutrophil collagenase [13]): 38.9 nM
- Ki [2]: 160 nM
- Ki (Stromelysin-3): 0.23 nM
- Ki [5]: 30 nM
- Ki [7]: 35.6 nM

Structure (SMILES): O=C(NCc1cccnc1)c1cc(C(=O)NCc2cccnc2)ncn1
- Activity [28]: inactive
- Activity [18]: inactive
- Activity [19]: inactive
- Activity [20]: inactive
- Activity [21]: inactive
- Activity [22]: inactive
- Activity (Stromelysin-1 [23]): inactive
- Activity (Neutrophil collagenase [24]): inactive
- Activity (Stromelysin-2): inactive
- Activity [25]: inactive

Structure (SMILES): COCCC1(Oc2ccc(Oc3ccc(-c4nc(-c5ccc(C#N)cc5)co4)cc3)cc2)C(=O)NC(=O)NC1=O
- IC50 (Collagenase 3 [27]): 0.36 nM
- fold change (FC) [29]: 619
- fold change (FC) [30]: 394
- fold change (FC) [31]: 540
- fold change (FC) [32]: 17000
- fold change (FC) [33]: 2400
- fold change (FC) [34]: 540
- fold change (FC) [35]: 397

Structure (SMILES): CS(=O)(=O)N1CCC([C@H](C(=O)NO)[C@@H](Cc2cccc(O)c2)C(=O)N[C@H]2c3ccccc3C[C@H]2O)CC1
- IC50 [36]: 3 nM
- fold change (FC) [37]: > 100
- fold change (FC) [38]: > 100

Structure (SMILES): O=C(OCc1ccccc1)c1cn2c(=O)n(Cc3ccccc3)c(=O)cc2s1
- Activity [18]: inactive
- Activity [19]: inactive
- Activity [20]: inactive
- Activity [21]: inactive
- Activity [22]: inactive
- Activity (Stromelysin-1 [23]): inactive
- Activity (Neutrophil collagenase [24]): inactive
- Activity [25]: inactive
- Activity [26]: inactive
